Converted amounts (≈) assume the structure as drawn.
How the values were obtained:
Trifolium repens [1] = experiment: Herbicidal activity against Trifolium repens measured after 14 days relative to control; format: functional, organism-based; conditions: for EC50: 336 h
Dactylis glomerata [2] = experiment: Herbicidal activity against Dactylis glomerata measured after 14 days relative to control; format: functional, organism-based; conditions: for EC50: 336 h
Cyperus iria [3] = experiment: Herbicidal activity against Cyperus iria measured after 14 days relative to control; format: functional, organism-based; conditions: for EC50: 336 h
Echinochloa crus-galli [4] = experiment: Herbicidal activity against Echinochloa crus-galli (barnyard grass) measured after 14 days relative to control; format: functional, organism-based; conditions: for EC50: 336 h
Trifolium repens [5] = experiment: Herbicidal activity against Trifolium repens at 75 g a.i./ha measured after 14 days relative to control; format: functional
Dactylis glomerata [6] = experiment: Herbicidal activity against Dactylis glomerata at 75 g a.i./ha measured after 14 days relative to control; format: functional
Cyperus iria [7] = experiment: Herbicidal activity against Cyperus iria at 75 g a.i./ha measured after 14 days relative to control; format: functional
Echinochloa crus-galli [8] = experiment: Herbicidal activity against Echinochloa crus-galli (barnyard grass) at 75 g a.i./ha measured after 14 days relative to control; format: functional
Trifolium repens [9] = experiment: Herbicidal activity against Trifolium repens at 15 g a.i./ha measured after 14 days relative to control; format: functional
Dactylis glomerata [10] = experiment: Herbicidal activity against Dactylis glomerata at 15 g a.i./ha measured after 14 days relative to control; format: functional
Cyperus iria [11] = experiment: Herbicidal activity against Cyperus iria at 15 g a.i./ha measured after 14 days relative to control; format: functional
Echinochloa crus-galli [12] = experiment: Herbicidal activity against Echinochloa crus-galli (barnyard grass) at 15 g a.i./ha measured after 14 days relative to control; format: functional

CSc1nn(C)c(NCCCN=C=S)c1C#N
Activity (Trifolium repens [1]): Dose-dependent effect
EC50 (Trifolium repens [1]): 67.4 µg/mL (≈ 252 µM)
Activity (Dactylis glomerata [2]): Dose-dependent effect
EC50 (Dactylis glomerata [2]): 59.4 µg/mL (≈ 222 µM)
Activity (Cyperus iria [3]): Dose-dependent effect
EC50 (Cyperus iria [3]): 64.9 µg/mL (≈ 243 µM)
Activity (Echinochloa crus-galli [4]): Dose-dependent effect
EC50 (Echinochloa crus-galli [4]): 65.3 µg/mL (≈ 244 µM)
Activity (Trifolium repens [5]): 73.33%
Activity (Dactylis glomerata [6]): 74.33%
Activity (Cyperus iria [7]): 70.23%
Activity (Echinochloa crus-galli [8]): 78.69%

CSc1nn(-c2ccccc2)c(NCCCN=C=S)c1C#N
Activity (Trifolium repens [5]): 56.46%
Activity (Dactylis glomerata [6]): 55.62%
Activity (Cyperus iria [7]): 57.69%
Activity (Echinochloa crus-galli [8]): 54.62%

CCOC(=O)c1c(SC)nn(-c2ccccc2)c1NCCCN=C=S
Activity (Trifolium repens [5]): 60.68%
Activity (Dactylis glomerata [6]): 59.08%
Activity (Cyperus iria [7]): 60.23%
Activity (Echinochloa crus-galli [8]): 58.93%

CCOC(=O)c1c(SCc2ccccc2)nn(C)c1NCCCN=C=S
Activity (Trifolium repens [5]): 45.12%
Activity (Dactylis glomerata [6]): 46.53%
Activity (Cyperus iria [7]): 55.36%
Activity (Echinochloa crus-galli [8]): 63.32%

N#Cc1c(SCc2ccccc2)nn(-c2ccccc2)c1NCCCN=C=S
Activity (Trifolium repens [1]): Dose-dependent effect
EC50 (Trifolium repens [1]): 67.7 µg/mL (≈ 167 µM)
Activity (Dactylis glomerata [2]): Dose-dependent effect
EC50 (Dactylis glomerata [2]): 62.4 µg/mL (≈ 154 µM)
Activity (Cyperus iria [3]): Dose-dependent effect
EC50 (Cyperus iria [3]): 65.8 µg/mL (≈ 162 µM)
Activity (Echinochloa crus-galli [4]): Dose-dependent effect
EC50 (Echinochloa crus-galli [4]): 64.3 µg/mL (≈ 159 µM)
Activity (Trifolium repens [5]): 75.57%
Activity (Dactylis glomerata [6]): 79.26%
Activity (Cyperus iria [7]): 86.53%
Activity (Echinochloa crus-galli [8]): 79.39%

C=CCN=C=S [ALLYL ISOTHIOCYANATE]
Activity (Trifolium repens [5]): 13.33%
Activity (Dactylis glomerata [6]): 40.12%
Activity (Cyperus iria [7]): 32.59%
Activity (Echinochloa crus-galli [8]): 25.86%

CCOC(=O)c1ccccc1S(=O)(=O)NC(=O)Nc1nc(Cl)cc(OC)n1 [CHLORIMURON ETHYL]
EC50 (Trifolium repens [1]): 9.98 µg/mL (≈ 24.1 µM)
EC50 (Dactylis glomerata [2]): 15.2 µg/mL (≈ 36.7 µM)
EC50 (Cyperus iria [3]): 12.9 µg/mL (≈ 31.1 µM)
EC50 (Echinochloa crus-galli [4]): 10.7 µg/mL (≈ 25.7 µM)
Activity (Trifolium repens [9]): 95.69%
Activity (Dactylis glomerata [10]): 78.25%
Activity (Cyperus iria [11]): 92.23%
Activity (Echinochloa crus-galli [12]): 98.32%

CCOC(=O)c1c(SC)nn(C)c1NCCCN=C=S
Activity (Trifolium repens [5]): 62.39%
Activity (Dactylis glomerata [6]): 56.25%
Activity (Cyperus iria [7]): 58.96%
Activity (Echinochloa crus-galli [8]): 52.32%

Cn1nc(SCc2ccccc2)c(C#N)c1NCCCN=C=S
Activity (Trifolium repens [5]): 34.48%
Activity (Dactylis glomerata [6]): 31.25%
Activity (Cyperus iria [7]): 42.56%
Activity (Echinochloa crus-galli [8]): 44.62%

CCOC(=O)c1c(SCc2ccccc2)nn(-c2ccccc2)c1NCCCN=C=S
Activity (Trifolium repens [5]): 65.78%
Activity (Dactylis glomerata [6]): 64.53%
Activity (Cyperus iria [7]): 68.59%
Activity (Echinochloa crus-galli [8]): 65.32%

Source: ChEMBL document CHEMBL3046919, “Synthesis and herbicidal activity of substituted pyrazole isothiocyanates” (Molecules, 2012)
